The numbers were not newly measured in US20250320459A1, “FUNCTIONALIZED MOLECULAR LAYERS AND SCAFFOLDS, AND METHODS OF PREPARATION AND USE THEREOF” (PURDUE RESEARCH FOUNDATION, priority 2022, published 2025), which cites them from elsewhere.

The series has as its target WGA.

For `CC(=O)N[C@H]1C(O)O[C@H](CO)[C@@H](O)[C@@H]1O` (stereo partly drawn) [GlcNAc, N-acetyl-D-glucosamine], the “KD, monovalent interactions between WGA and GlcNAc” value (monovalent) was “micromolar to millimolar range”. Also, the “KD, multivalent interactions between WGA and GlcNAc” value (multivalent) is given as “nanomolar range”.
